Results published in ChEMBL document CHEMBL1201862, “PubChem BioAssay data set” (2004).
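Values below derive from 48-hour exposures of cells grown in 96-well plates, with endpoints linearly interpolated between the two concentrations bracketing the appropriate inhibition level. GI50: concentration for 50% inhibition of growth.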 The source made the active and inactive calls. No stated cut-off is given here; in the data, active = GI50 up to about 1.1 µM and inactive = higher.

Legend:
Assay in all cases: NCI anticancer screen, dose series, 48 h
UO-31 = tested on: UO-31
RXF 393 = tested on: RXF 393
NCI-H460 = tested on: NCI-H460
SNB-19 = tested on: SNB-19
HCT-15 = tested on: HCT-15
TK-10 = tested on: TK-10
NCI-H23 = tested on: NCI-H23
Malme-3M = tested on: Malme-3M
SK-MEL-2 = tested on: SK-MEL-2
OVCAR-3 = tested on: OVCAR-3
NCI-H522 = tested on: NCI-H522
786-0 = tested on: 786-0
CAKI-1 = tested on: CAKI-1
MDA-N = tested on: MDA-N
PC-3 = tested on: PC-3
OVCAR-4 = tested on: OVCAR-4
UACC-257 = tested on: UACC-257
KM12 = tested on: KM12
MDA-MB-435 = tested on: MDA-MB-435
MCF7 = tested on: MCF7

| SMILES | GI50 (UO-31) | GI50 (RXF 393) | GI50 (NCI-H460) | GI50 (SNB-19) | GI50 (HCT-15) | GI50 (TK-10) | GI50 (NCI-H23) | GI50 (Malme-3M) | GI50 (SK-MEL-2) | GI50 (OVCAR-3) | GI50 (NCI-H522) | GI50 (786-0) | GI50 (CAKI-1) | GI50 (MDA-N) | GI50 (PC-3) | GI50 (OVCAR-4) | GI50 (UACC-257) | GI50 (KM12) | GI50 (MDA-MB-435) | GI50 (MCF7) |
| --- | --- | --- | --- | --- | --- | --- | --- | --- | --- | --- | --- | --- | --- | --- | --- | --- | --- | --- | --- | --- |
| O=C(/C=C\Nc1ccccc1O)C(F)(F)F | 27.7 µM (inactive) | > 100 µM (inactive) | 67.5 µM (inactive) | > 100 µM (inactive) | 40.8 µM | > 100 µM (inactive) | 78.3 µM (inactive) | 26.5 µM (inactive) | 69 µM (inactive) | 19.5 µM (inactive) | 31 µM (inactive) | 35.1 µM (inactive) | 68.1 µM (inactive) | 43 µM (inactive) | 37.3 µM (inactive) | 71.9 µM (inactive) | 26.1 µM (inactive) | > 100 µM (inactive) | 60.1 µM (inactive) | 43.9 µM (inactive) |
| CSc1c(C#N)c(O)nc(N)c1C(=O)Nc1ccc(C)cc1 | 31.4 µM (inactive) | > 100 µM (inactive) | > 100 µM (inactive) | > 100 µM (inactive) | > 100 µM | > 100 µM (inactive) | 90.6 µM (inactive) | > 100 µM (inactive) | > 100 µM (inactive) | > 100 µM (inactive) | 71.9 µM (inactive) | > 100 µM (inactive) | 32.2 µM (inactive) | > 100 µM (inactive) | > 100 µM (inactive) | > 100 µM (inactive) | > 100 µM (inactive) | > 100 µM (inactive) | > 100 µM (inactive) | > 100 µM (inactive) |
| CC(=O)OC12CC(C)C3(O)C4C=C(C)C(=O)[C@@]4(O)CC(CO)=C[C@H]3C1C2(C)C (stereo not given in full) | > 10 µM (inactive) | > 100 µM (inactive) | > 100 µM (inactive) | > 10 µM (inactive) | > 10 µM | 2.34 µM (inactive) | > 10 µM (inactive) | > 10 µM (inactive) | > 10 µM (inactive) | > 10 µM (inactive) | > 10 µM (inactive) | > 10 µM (inactive) | 4.7 µM (inactive) | 2.69 µM (inactive) | > 1000 µM (inactive) | > 10 µM (inactive) | > 10 µM (inactive) | > 10 µM (inactive) | 3.67 µM (inactive) | > 10 µM (inactive) |
| Cc1cc(=O)[nH]c(-n2[nH]c(C)c(CCO)c2=O)n1 | > 100 µM (inactive) | > 100 µM (inactive) | > 100 µM (inactive) | > 100 µM (inactive) | > 100 µM | > 100 µM (inactive) | > 100 µM (inactive) | > 100 µM (inactive) | > 100 µM (inactive) | > 100 µM (inactive) | > 100 µM (inactive) | > 100 µM (inactive) | > 100 µM (inactive) | > 100 µM (inactive) | > 100 µM (inactive) | > 100 µM (inactive) | > 100 µM (inactive) | > 100 µM (inactive) | > 100 µM (inactive) | > 100 µM (inactive) |
| Cn1cc(C[C@@H](N)C(=O)O)c2ccccc21 [INDOXIMOD] | > 100 µM (inactive) | 20 µM (inactive) | > 100 µM (inactive) | > 100 µM (inactive) | > 100 µM | > 100 µM (inactive) | > 100 µM (inactive) | > 100 µM (inactive) | > 100 µM (inactive) | > 100 µM (inactive) | > 100 µM (inactive) | > 100 µM (inactive) | > 100 µM (inactive) | > 100 µM (inactive) | > 100 µM (inactive) | > 100 µM (inactive) | > 100 µM (inactive) | > 100 µM (inactive) | > 100 µM (inactive) | > 100 µM (inactive) |
